Source: patent US11051515B2, “3-acyl-benzamides and their use as herbicides” (Bayer Aktiengesellschaft, priority 2017, dated 2021)

Experiments:
[1] = tested on: POLCO; experiment: Post-emergence action against POLCO; assay type: in vivo, Polygonum convolvulus; settings: Fallopia convolvulus, 504 h; post-emergence, dosage 80 g/ha
Method in brief: (§1)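 Weeds grown in sandy loam in greenhouse, treated at one-leaf stage (2–3 weeks after sowing) with WP or EC formulations sprayed as aqueous suspension/emulsion at 600 to […] water with 0.2% wetting agent. Visual rating after about 3 weeks versus untreated controls, as % herbicidal action (100% = plants dead, 0% = like control).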

[2] = tested on: ECHCG; experiment: Post-emergence action against ECHCG; assay type: in vivo, Echinochloa crus-galli; settings: Echinochloa crus-galli, 504 h; post-emergence, dosage 80 g/ha, visual assessment about 3 weeks after treatment vs untreated controls; read-out: Post-emergence action against ECHCG (herbicidal action in percent)
Method in brief: as §1

[3] = tested on: ECHCG; experiment: Pre-emergence action against ECHCG; assay type: in vivo, Echinochloa crus-galli; settings: Echinochloa crus-galli, 504 h; pre-emergence, dosage 320 g/ha, scored visually after 3 weeks vs untreated controls; read-out: Pre-emergence action against ECHCG (herbicidal activity)
Method in brief: (§2)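 Seeds sown in sandy loam in wood-fiber pots and covered with soil. Greenhouse growth; visual damage scored after 3 weeks versus untreated controls (100% = dead, 0% = like control).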

[4] = tested on: ABUTH; experiment: Post-emergence action against ABUTH; assay type: in vivo, Abutilon theophrasti; settings: Abutilon theophrasti, 504 h; post-emergence, dosage 80 g/ha, visual assessment about 3 weeks after treatment vs untreated controls; read-out: Post-emergence action against ABUTH (herbicidal action in percent)
Method in brief: as §1

[5] = tested on: VERPE; experiment: Post-emergence action against VERPE; assay type: in vivo, Veronica persica; settings: Veronica persica, 504 h, dosage 80 g/ha
Method in brief: as §1

[6] = tested on: AVEFA; experiment: Pre-emergence action against AVEFA; assay type: in vivo, Avena fatua; settings: Avena fatua, 504 h, dosage 320 g/ha, scored visually after 3 weeks vs untreated controls, read-out: Pre-emergence action against AVEFA (herbicidal activity)
Method in brief: as §2

[7] = tested on: MATIN; experiment: Pre-emergence action against MATIN; assay type: in vivo, Matricaria inodora; settings: Tripleurospermum inodorum, 504 h; Dosage 320 g/ha, pre-emergence
Method in brief: as §2

[8] = tested on: PHBPU; experiment: Post-emergence action against PHBPU; assay type: in vivo, Pharbitis purpurea; settings: Ipomoea purpurea, 504 h; post-emergence, dosage 80 g/ha
Method in brief: as §1

[9] = tested on: LOLMU; experiment: Post-emergence action against LOLMU; assay type: in vivo, Lolium multiflorum; settings: Lolium multiflorum, 504 h, dosage 80 g/ha, visual assessment about 3 weeks after treatment vs untreated controls, read-out: Post-emergence action against LOLMU (herbicidal action in percent)
Method: Seeds of monocotyledonous and dicotyledonous weed and crop plants are laid out in sandy loam soil in wood-fiber pots, covered with soil and cultivated in a greenhouse under good growth conditions. 2 to 3 weeks after sowing, the test plants are treated at the one-leaf stage. The compounds of the invention, formulated in the form of wettable powders (WP) or as emulsion concentrates (EC), are then sprayed onto the green parts of the plants in the form of an aqueous suspension or emulsion at a water application rate equating to […], with addition of 0.2% wetting agent. After the test plants have been left to stand in the greenhouse under optimal growth conditions for about 3 weeks, the action of the preparations is assessed visually in comparison to untreated controls (herbicidal action in percent (%): 100% activity=the plants have died, 0% activity=like control plants). […] At the same time, inventive compounds leave Gramineae crops such as barley, wheat, rye, millet/Sorghum, corn or rice virtually undamaged when applied post-emergence, even at high active ingredient dosages. In addition, some substances are also harmless to dicotyledonous crops such as soya, cotton, oilseed rape, sugar beet or potatoes. Some of the compounds according to the invention have high selectivity and are therefore suitable for controlling unwanted vegetation in agricultural crops by the post-emergence method. The data of Tables B18 to B34 below illustrate, in an exemplary manner, the […] herbicidal action of the compounds according to the invention, the herbicidal activity being stated in percent.

[10] = tested on: LOLMU; experiment: Pre-emergence action against LOLMU; assay type: in vivo, Lolium multiflorum; settings: Lolium multiflorum, 504 h, dosage 320 g/ha, scored visually after 3 weeks vs untreated controls, read-out: Pre-emergence action against LOLMU (herbicidal activity)
Method in brief: as §2

[11] = tested on: VERPE; experiment: Pre-emergence action against VERPE; assay type: in vivo, Veronica persica; settings: Veronica persica, 504 h; Dosage 320 g/ha, pre-emergence
Method in brief: as §2

[12] = tested on: CYPES; experiment: Pre-emergence action against CYPES; assay type: in vivo, Cyperus esculentus; settings: Cyperus esculentus, 504 h; pre-emergence, dosage 320 g/ha, scored visually after 3 weeks vs untreated controls; read-out: Pre-emergence action against CYPES (herbicidal activity)
Method in brief: as §2

[13] = tested on: AVEFA; experiment: Post-emergence action against AVEFA; assay type: in vivo, Avena fatua; settings: Avena fatua, 504 h; post-emergence, dosage 80 g/ha, visual assessment about 3 weeks after treatment vs untreated controls; read-out: Post-emergence action against AVEFA (herbicidal action in percent)
Method in brief: as §1

[14] = tested on: ABUTH; experiment: Pre-emergence action against ABUTH; assay type: in vivo, Abutilon theophrasti; settings: Abutilon theophrasti, 504 h; pre-emergence, dosage 320 g/ha, scored visually after 3 weeks vs untreated controls; read-out: Pre-emergence action against ABUTH (herbicidal activity)
Method in brief: as §2

[15] = tested on: STEME; experiment: Pre-emergence action against STEME; assay type: in vivo, Stellaria media; settings: Stellaria media, 504 h; Dosage 320 g/ha, pre-emergence
Method in brief: as §2

[16] = tested on: VIOTR; experiment: Pre-emergence action against VIOTR; assay type: in vivo, Viola tricolor; settings: Viola tricolor, 504 h; Dosage 320 g/ha, pre-emergence
Method in brief: as §2

[17] = tested on: STEME; experiment: Post-emergence action against STEME; assay type: in vivo, Stellaria media; settings: Stellaria media, 504 h; post-emergence, dosage 80 g/ha
Method in brief: as §1

[18] = tested on: CYPES; experiment: Post-emergence action against CYPES; assay type: in vivo, Cyperus esculentus; settings: Cyperus esculentus, 504 h; post-emergence, dosage 80 g/ha, visual assessment about 3 weeks after treatment vs untreated controls; read-out: Post-emergence action against CYPES (herbicidal action in percent)
Method in brief: as §1

[19] = tested on: AMARE; experiment: Pre-emergence action against AMARE; assay type: in vivo, Amaranthus retroflexus; settings: Amaranthus retroflexus, 504 h; pre-emergence, dosage 320 g/ha, scored visually after 3 weeks vs untreated controls; read-out: Pre-emergence action against AMARE (herbicidal activity)
Method in brief: as §2

[20] = tested on: SETVI; experiment: Post-emergence action against SETVI; assay type: in vivo, Setaria viridis; settings: Setaria viridis, 504 h; post-emergence, dosage 80 g/ha, visual assessment about 3 weeks after treatment vs untreated controls; read-out: Post-emergence action against SETVI (herbicidal action in percent)
Method in brief: as §1

[21] = tested on: ALOMY; experiment: Pre-emergence action against ALOMY; assay type: in vivo, Alopecurus myosuroides; settings: Alopecurus myosuroides, 504 h; dosage 320 g/ha; pre-emergence; scored visually after 3 weeks vs untreated controls; 100% = plants have died, 0% = like control plants; read-out: Pre-emergence action against ALOMY (herbicidal activity in percent)
Method in brief: as §2

[22] = tested on: VIOTR; experiment: Post-emergence action against VIOTR; assay type: in vivo, Viola tricolor; settings: Viola tricolor, 504 h; post-emergence, dosage 80 g/ha
Method in brief: as §1

[23] = tested on: POLCO; experiment: Pre-emergence action against POLCO; assay type: in vivo, Polygonum convolvulus; settings: Fallopia convolvulus, 504 h; Dosage 320 g/ha, pre-emergence
Method in brief: as §2

[24] = tested on: MATIN; experiment: Post-emergence action against MATIN; assay type: in vivo, Matricaria inodora; settings: Tripleurospermum inodorum, 504 h; post-emergence, dosage 80 g/ha, visual assessment about 3 weeks after treatment vs untreated controls; read-out: Post-emergence action against MATIN (herbicidal action in percent)
Method in brief: as §1

[25] = tested on: SETVI; experiment: Pre-emergence action against SETVI; assay type: in vivo, Setaria viridis; settings: Setaria viridis, 504 h; pre-emergence, dosage 320 g/ha, scored visually after 3 weeks vs untreated controls; read-out: SETVI (Table B8, pre-emergence herbicidal activity)
Method in brief: as §2

## CC(=O)c1c(C(F)(F)F)ccc(C(=O)Nc2nnnn2C)c1Br [1-195]
[1]
  pest or weed control at 80 g/ha: 90%
[2]
  pest or weed control at 80 g/ha: 90%
[3]
  pest or weed control at 320 g/ha: 100%
[4]
  pest or weed control at 80 g/ha: 80%
[5]
  pest or weed control at 80 g/ha: 80%
[6]
  pest or weed control at 320 g/ha: 100%
[7]
  pest or weed control at 320 g/ha: 100%
[8]
  pest or weed control at 80 g/ha: 90%
[9]
  pest or weed control at 80 g/ha: 90%
[10]
  pest or weed control at 320 g/ha: 90%
[11]
  pest or weed control at 320 g/ha: 100%
[12]
  pest or weed control at 320 g/ha: 100%
[13]
  pest or weed control at 80 g/ha: 80%
[14]
  pest or weed control at 320 g/ha: 100%
[15]
  pest or weed control at 320 g/ha: 90%
[16]
  pest or weed control at 320 g/ha: 100%
[17]
  pest or weed control at 80 g/ha: 100%
[18]
  pest or weed control at 80 g/ha: 80%
[19]
  pest or weed control at 320 g/ha: 100%
[20]
  pest or weed control at 80 g/ha: 90%
[21]
  pest or weed control at 320 g/ha: 90%
[22]
  pest or weed control at 80 g/ha: 100%
[23]
  pest or weed control at 320 g/ha: 80%
[24]
  pest or weed control at 80 g/ha: 90%
[25]
  pest or weed control at 320 g/ha: 100%
